# Experimental data from patent EP4725490A1, “EED INHIBITOR SOLID DISPERSION, ORAL FORMULATION COMPRISING SAME, AND PREPARATION METHOD THEREFOR” (Ascentage Pharma (Suzhou) Co., Ltd., priority 2023, dated 2024).
# Assays:
# [1] = Solubility of compound A in aqueous buffer; format: physicochemical; conditions: pH 1.2, aqueous buffer, thermodynamic from solid, pH of 1.2 to 7.4, 37 °C/24 h
# Source text: The starting material of compound A is an anhydrous crystal powder with slight hygroscopicity, which is almost insoluble in water. […] For such drugs with poor water solubility, the dissolution of the drugs in gastrointestinal fluids is the rate-limiting step of their bioavailability, and poor water solubility will necessarily lead to low dissolution and thus lower bioavailability. Therefore, if the bioavailability of the drug is to be improved, the dosage form, formula composition, and process need to be specially designed to change the dispersion state of the drug and promote its dissolution in the gastrointestinal tract.
# [2] = Solubility of compound A in various solvents (standard solubility determination); format: physicochemical; conditions: organic solvent or mixture, 25 °C
# Experimental: The solubility (25 °C) of the active ingredient compound A in various solvents was determined using a standard solubility determination method well known in the art.
smiles,measurement,setting,value
"CC(C)N1Cc2cc(C(F)(F)F)ncc2-c2cnc(NCc3c(F)ccc4c3CCO4)n3cnc(c23)C1=O [compound A, 12-(((5-fluoro-2,3-dihydrobenzofuran-4-yl)methyl)amino)-4-isopropyl-7-(trifluoromethyl)-4,5-dihydro-3H-2,4,8,11,12a-pentaazabenzo[4,5]cycloocta[1,2,3-cd]inden-3-one]",solubility at 24 h,[1],0.08 to 0.39 µg/mL
same,solubility,[2]; Acetonitrile,1.2 mg/mL
same,solubility,[2]; DMF,33 mg/mL
same,solubility,[2]; DMSO,33 mg/mL
same,solubility,[2]; Dichloromethane,10 mg/mL
same,solubility,[2]; Ethanol,1.1 mg/mL
same,solubility,[2]; Methanol: dichloromethane (1:1),28.5 mg/mL
same,solubility,[2]; Methanol: dichloromethane (1:2),50 mg/mL
same,solubility,[2]; Methanol: dichloromethane (1:3),83 mg/mL
same,solubility,[2]; Methanol: dichloromethane (1:4),83 mg/mL
same,solubility,[2]; Methanol: dichloromethane (1:5),83 mg/mL
same,solubility,[2]; Methanol: dichloromethane (2:1),14.3 mg/mL
same,solubility,[2]; Methanol: dichloromethane (3:1),7.7 mg/mL
same,solubility,[2]; Methanol,4.3 mg/mL
same,solubility,[2]; N-methylpyridine,11 mg/mL
same,solubility,[2]; Tetrahydrofuran,2 mg/mL
same,solubility,[2]; Toluene,3.3 mg/mL
